{"source": "PubChem BioAssay (NCI)", "assay_in_all_cases": "growth of human tumour cells (NCI), 48 h", "key": {"[1]": {"test_system": "RPMI-8226 leukemia"}, "[2]": {"test_system": "HOP-92 NSCLC"}, "[3]": {"test_system": "UACC-62 melanoma"}, "[4]": {"test_system": "SK-MEL-2 melanoma"}, "[5]": {"test_system": "HS 578T breast"}, "[6]": {"test_system": "IGROV1 ovarian"}, "[7]": {"test_system": "SNB-75 CNS"}, "[8]": {"test_system": "HOP-62 NSCLC"}, "[9]": {"test_system": "SK-MEL-5 melanoma"}, "[10]": {"test_system": "OVCAR-4 ovarian"}, "[11]": {"test_system": "NCI/ADR-RES ovarian"}, "[12]": {"test_system": "SNB-19 CNS"}, "[13]": {"test_system": "CAKI-1 renal"}, "[14]": {"test_system": "MCF7 breast"}, "[15]": {"test_system": "T-47D breast"}, "[16]": {"test_system": "MOLT-4 leukemia"}, "[17]": {"test_system": "NCI-H226 lung"}, "[18]": {"test_system": "SK-MEL-28 melanoma"}, "[19]": {"test_system": "NCI-H522 lung"}, "[20]": {"test_system": "U251 CNS"}, "[21]": {"test_system": "KM12 colon"}, "[22]": {"test_system": "PC-3 prostate"}, "[23]": {"test_system": "RXF 393 renal"}, "[24]": {"test_system": "UACC-257 melanoma"}, "[25]": {"test_system": "M14 melanoma"}, "[26]": {"test_system": "CCRF-CEM leukemia"}, "[27]": {"test_system": "HCT-116 colon"}, "[28]": {"test_system": "OVCAR-8 ovarian"}, "[29]": {"test_system": "HCT-15 colon"}}, "note": "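Briefly, cells in 96-well plates were exposed to five compound concentrations for 48 h, and endpoints were estimated by linear interpolation. GI50 is the concentration that inhibits growth by half. TGI denotes the concentration required for complete inhibition of growth.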", "data": [{"compound": "O=C(/C=C/c1cc(Cl)ccc1Cl)Nc1ncc(Cc2ccc(Cl)cc2)s1", "values": [{"measurement": "GI50", "setting": "[1]", "result": 67.4, "unit": "nM"}, {"measurement": "TGI", "setting": "[1]", "result": 16.5, "unit": "µM"}, {"measurement": "GI50", "setting": "[2]", "result": 715, "unit": "nM"}, {"measurement": "TGI", "setting": "[2]", "result": 5.87, "unit": "µM"}, {"measurement": "GI50", "setting": "[3]", "result": 50.7, "unit": "nM"}, {"measurement": "TGI", "setting": "[3]", "result": 18, "unit": "µM"}, {"measurement": "GI50", "setting": "[4]", "result": 144, "unit": "nM"}, {"measurement": "TGI", "setting": "[4]", "result": 4.52, "unit": "µM"}, {"measurement": "GI50", "setting": "[5]", "result": 52.4, "unit": "nM"}, {"measurement": "TGI", "setting": "[5]", "result": 6.18, "unit": "µM"}, {"measurement": "GI50", "setting": "[6]", "result": 165, "unit": "nM"}, {"measurement": "TGI", "setting": "[6]", "result": 16.3, "unit": "µM"}, {"measurement": "GI50", "setting": "[7]", "result": 39.1, "unit": "nM"}, {"measurement": "TGI", "setting": "[7]", "result": 2470, "unit": "nM"}, {"measurement": "GI50", "setting": "[8]", "result": 80.3, "unit": "nM"}, {"measurement": "TGI", "setting": "[8]", "result": 6.03, "unit": "µM"}, {"measurement": "GI50", "setting": "[9]", "result": 299, "unit": "nM"}, {"measurement": "TGI", "setting": "[9]", "result": 5.19, "unit": "µM"}, {"measurement": "GI50", "setting": "[10]", "result": 1590, "unit": "nM"}, {"measurement": "TGI", "setting": "[10]", "result": 10.8, "unit": "µM"}, {"measurement": "GI50", "setting": "[11]", "result": 42.9, "unit": "nM"}, {"measurement": "TGI", "setting": "[11]", "result": 2280, "unit": "nM"}, {"measurement": "GI50", "setting": "[12]", "result": 70.2, "unit": "nM"}, {"measurement": "TGI", "setting": "[12]", "result": 31.4, "unit": "µM"}, {"measurement": "GI50", "setting": "[13]", "result": 61.8, "unit": "nM"}, {"measurement": "TGI", "setting": "[13]", "result": 2170, "unit": "nM"}, {"measurement": "GI50", "setting": "[14]", "result": 83.3, "unit": "nM"}, {"measurement": "TGI", "setting": "[14]", "result": "> 38.8", "unit": "µM"}, {"measurement": "GI50", "setting": "[15]", "result": 14.1, "unit": "µM"}, {"measurement": "TGI", "setting": "[15]", "result": "> 100", "unit": "µM"}, {"measurement": "GI50", "setting": "[16]", "result": 122, "unit": "nM"}, {"measurement": "TGI", "setting": "[16]", "result": "> 100", "unit": "µM"}, {"measurement": "GI50", "setting": "[17]", "result": 310, "unit": "nM"}, {"measurement": "TGI", "setting": "[17]", "result": 12, "unit": "µM"}, {"measurement": "GI50", "setting": "[18]", "result": 1980, "unit": "nM"}, {"measurement": "TGI", "setting": "[18]", "result": 53.4, "unit": "µM"}, {"measurement": "GI50", "setting": "[19]", "result": 33.3, "unit": "nM"}, {"measurement": "TGI", "setting": "[19]", "result": 155, "unit": "nM"}, {"measurement": "GI50", "setting": "[20]", "result": 39.5, "unit": "nM"}, {"measurement": "TGI", "setting": "[20]", "result": 3.88, "unit": "µM"}, {"measurement": "GI50", "setting": "[21]", "result": 53.5, "unit": "nM"}, {"measurement": "TGI", "setting": "[21]", "result": "> 28.1", "unit": "µM"}, {"measurement": "GI50", "setting": "[22]", "result": 105, "unit": "nM"}, {"measurement": "TGI", "setting": "[22]", "result": "> 53.7", "unit": "µM"}, {"measurement": "GI50", "setting": "[23]", "result": 27.6, "unit": "nM"}, {"measurement": "TGI", "setting": "[23]", "result": 306, "unit": "nM"}, {"measurement": "GI50", "setting": "[24]", "result": 226, "unit": "nM"}, {"measurement": "TGI", "setting": "[24]", "result": "> 46.9", "unit": "µM"}, {"measurement": "GI50", "setting": "[25]", "result": 40.5, "unit": "nM"}, {"measurement": "TGI", "setting": "[25]", "result": 1490, "unit": "nM"}, {"measurement": "GI50", "setting": "[26]", "result": 37.6, "unit": "nM"}, {"measurement": "TGI", "setting": "[26]", "result": "> 100", "unit": "µM"}, {"measurement": "GI50", "setting": "[27]", "result": 42, "unit": "nM"}, {"measurement": "TGI", "setting": "[27]", "result": 5.85, "unit": "µM"}, {"measurement": "GI50", "setting": "[28]", "result": 69.5, "unit": "nM"}, {"measurement": "TGI", "setting": "[28]", "result": 1840, "unit": "nM"}, {"measurement": "GI50", "setting": "[29]", "result": 44.8, "unit": "nM"}, {"measurement": "TGI", "setting": "[29]", "result": "> 37.9", "unit": "µM"}]}]}
